Experimental data as given in PubChem BioAssay (NCI).
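A five-concentration, 48-hour dose response in 96-well plates underlies each endpoint, interpolated linearly between surrounding concentrations. Here, GI50 denotes the concentration required for 50% inhibition of growth. TGI denotes the concentration required for complete inhibition of growth.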

Key:
Assay in all cases: inhibition of tumour cell growth, NCI panel, 48 h
K-562 leukemia = system: K-562 leukemia
OVCAR-3 ovarian = system: OVCAR-3 ovarian
SF-539 CNS = system: SF-539 CNS
SF-295 CNS = system: SF-295 CNS
HT29 colon = system: HT29 colon
NCI/ADR-RES ovarian = system: NCI/ADR-RES ovarian
CCRF-CEM leukemia = system: CCRF-CEM leukemia
NCI-H226 lung = system: NCI-H226 lung
SK-MEL-5 melanoma = system: SK-MEL-5 melanoma
HL-60(TB) leukemia = system: HL-60(TB) leukemia
MDA-MB-435 = system: MDA-MB-435
IGROV1 ovarian = system: IGROV1 ovarian
NCI-H23 lung = system: NCI-H23 lung
DU-145 prostate = system: DU-145 prostate
A498 renal = system: A498 renal
PC-3 prostate = system: PC-3 prostate
NCI-H460 lung = system: NCI-H460 lung
ACHN renal = system: ACHN renal
CAKI-1 renal = system: CAKI-1 renal
SNB-19 CNS = system: SNB-19 CNS
SN12C renal = system: SN12C renal
LOX IMVI melanoma = system: LOX IMVI melanoma
RXF 393 renal = system: RXF 393 renal
COLO 205 colon = system: COLO 205 colon
OVCAR-4 ovarian = system: OVCAR-4 ovarian
NCI-H522 lung = system: NCI-H522 lung
TK-10 renal = system: TK-10 renal

Clc1nc(Cl)c2ncn(CC#CCn3cnc4c(Cl)nc(Cl)nc43)c2n1
GI50 (K-562 leukemia): 2.39 µM
TGI (K-562 leukemia): 6.24 µM
GI50 (OVCAR-3 ovarian): 2.06 µM
TGI (OVCAR-3 ovarian): 3.71 µM
GI50 (SF-539 CNS): 2.56 µM
TGI (SF-539 CNS): 6.86 µM
GI50 (SF-295 CNS): 6.69 µM
TGI (SF-295 CNS): 20.4 µM
GI50 (HT29 colon): 1.89 µM
TGI (HT29 colon): 3.69 µM
GI50 (NCI/ADR-RES ovarian): 3.73 µM
TGI (NCI/ADR-RES ovarian): 24.1 µM
GI50 (CCRF-CEM leukemia): 1.9 µM
TGI (CCRF-CEM leukemia): 3.89 µM
GI50 (NCI-H226 lung): 3.18 µM
TGI (NCI-H226 lung): 7.94 µM
GI50 (SK-MEL-5 melanoma): 11.1 µM
TGI (SK-MEL-5 melanoma): 23.3 µM
GI50 (HL-60(TB) leukemia): 2.41 µM
TGI (HL-60(TB) leukemia): > 100 µM
GI50 (MDA-MB-435): 3.25 µM
TGI (MDA-MB-435): 8.56 µM
GI50 (IGROV1 ovarian): 1.54 µM
TGI (IGROV1 ovarian): 3.37 µM
GI50 (NCI-H23 lung): 3.05 µM
TGI (NCI-H23 lung): 8.52 µM
GI50 (DU-145 prostate): 1.78 µM
TGI (DU-145 prostate): 3.23 µM
GI50 (A498 renal): 10.6 µM
TGI (A498 renal): 23 µM
GI50 (PC-3 prostate): 3.61 µM
TGI (PC-3 prostate): 11.1 µM
GI50 (NCI-H460 lung): 3.41 µM
TGI (NCI-H460 lung): 12.4 µM
GI50 (ACHN renal): 1.9 µM
TGI (ACHN renal): 3.32 µM
GI50 (CAKI-1 renal): 2.05 µM
TGI (CAKI-1 renal): 3.91 µM
GI50 (SNB-19 CNS): 2.01 µM
TGI (SNB-19 CNS): 4.25 µM
GI50 (SN12C renal): 2.66 µM
TGI (SN12C renal): 6.5 µM
GI50 (LOX IMVI melanoma): 1.86 µM
TGI (LOX IMVI melanoma): 3.41 µM
GI50 (RXF 393 renal): 1.35 µM
TGI (RXF 393 renal): 2.98 µM
GI50 (COLO 205 colon): 1.7 µM
TGI (COLO 205 colon): 3.36 µM
GI50 (OVCAR-4 ovarian): 1.89 µM
TGI (OVCAR-4 ovarian): 3.36 µM
GI50 (NCI-H522 lung): 1.56 µM
TGI (NCI-H522 lung): 3.51 µM
GI50 (TK-10 renal): 5.51 µM
TGI (TK-10 renal): 17.8 µM
